Test results: patent publication US6828450B2, “Triptycene analogs” (Kansas State University Research Foundation, priority 2000, dated 2004)
Like-named read-outs stand apart in the source and are kept apart here.

What was measured:
[1] = molecular target: Malaria protease plasmepsin II (Plasmodium falciparum, UniProt P46925); test: Inhibition of malaria protease plasmepsin II; assay type: biochemical
HL-60-S cells [2] = test: HL-60-S cell proliferation assay; assay type: cell-based, human
From the text: (§1) The MDR HL-60-RV and HL-60-R8 cells were developed in Melvin S. Center's laboratory (Kansas State University) and similarly maintained in RPMI 1640 medium in the absence of drugs (Marsh W, et al, Cancer Res 46: 4053-4057, 1986; McGrath T et al, and Center M S: Biochem Biophys Res Commun 145: 1171-1176, 1987; Marsh W and Center M S: Cancer Res 47: 5080-5086, 1987; McGrath T, et al, Biochem Pharmacol 38: 3611-3619, 1989; Marquardt D, et al, Cancer Res 50: 1426-1430, 1990; Marquardt D and Center M S: J Natl Cancer Inst 83: 1089-1109, 1991; Krishnamachary N and Center M S; Cancer Res 53: 3658-3661, 1993). Every 4 weeks, these HL-60-RV and HL-60-R8 sublines were exposed to 41 nM DAU for 48 h to stabilize their MDR phenotype. This concentration of DAU, which is not cytotoxic to MDR HL-60 sublines, was removed from the culture medium at least 48 h before experimentation. […] RFs were determined by dividing the IC50 of the MDR cells by that of the sensitive WT parent cell line.

HL-60-RV cells = test: DNA synthesis in HL-60-RV cells; assay type: cell-based, human; conditions: for IC50: read-out: IC50, inhibition of DNA synthesis in HL-60-RV cells
HL-60-S cells [3] = test: Nucleoside transport in HL-60-S cells; assay type: cell-based, human; conditions: for IC50: 15-min preincubation, 30 s
From the text: (§2) FIG. 15. Comparison of the concentration-dependent inhibitions of the cellular transport of purine (A) and pyrimidine (B) nucleosides by DAU (open symbols) and TT2 (closed symbols) in HL-60-S (circles), HL-60-RV (squares) and HL-60-R8 (triangles) cells in vitro. Results are expressed as % of ^3H-adenosine (26,032±2,239 cpm, 100±9%, striped area in A) and ^3H-thymidine (17,934±1,398 cpm, 100±8%, striped area in B) transported into vehicle-treated control cells over 30 s.
as §1
L1210 cells (about 1.5×10^6 cells/0.5 ml) were preincubated for 15 min at 37° C. in the presence or absence of TTs and then exposed to 1 μCi of ^3H-thymidine for only 30 sec to assess the cellular uptake of nucleoside over such very short period of time. […] Cell lysates were mixed with 9 ml of Bio-Safe II (Researeh Products International) and counted to estimate the cellular uptake of ^3H-thymidine. Drug inhibition was expressed as % of ^3H-thymidine or ^3H-adenosine transported into vehicle-treated control cells over similar 30-sec period.

HL-60-R8 cells = test: Nucleoside transport in HL-60-R8 cells; assay type: cell-based, human; conditions: 15-min preincubation, 30 s
From the text: as §2
as §1, with “phenotype.” for “phenotype. This concentration of DAU, which is not cytotoxic to MDR HL-60 sublines, was removed from the culture medium at least 48 h before experimentation.”, “line. […]” for “line.”

L1210 cells = test: Mitotic index of L1210 cells; assay type: cell-based, murine; conditions: 24 h; for decrease of the % of mitotic cells: DAU 0.256-1.6 μM, highest concentrations of TT2 tested
Description: FIG. 18. Effects of the novel TT analog TT2 and DAU on the mitotic index of L1210 cells in vitro. […] Cells (10^6/0.5 ml of RPMI 1640 medium) were incubated in triplicate for 24 h at 37° C. in the presence or absence (control) of 0.256, 0.64, 1.6 and 4 μM TT2, 0.256, 0.64 and 1.6 μM DAU, 0.2 μM VCR or 1 μM H10. After fixation with MeOH:acetic acid (3:1) and staining with 0.1% crystal violet, about 500 cells/slide were scored for mitotic figures and the mitotic index was expressed as the % of mitotic cells in drug-treated cultures divided by the % of mitotic cells in non-treated controls. The mean % of mitotic cells in control at 24 h was 1.86±0.43%.
L1210 cells (about 1×10^6/0.5 ml of FCS-containing RPMI 1640 medium) were incubated in triplicate for 24 h at 37° C. in the presence or absence of TTs or known antimitotic drugs, and collected by centrifugation at 200×g for 10 min to determine their mitotic index. For hypotonic treatment, cells were resuspended in 1 ml of 75 mM KCl for 20 min at 4° C. After fixation in 1 ml of MeOH:acetic acid (3:1), the final cell pellets were collected by centrifugation, resuspended in 75 μl of MeOH:acetic acid (3:1), dispensed onto glass slides, air dried, and stained by spreading 40 μl of 0.1% crystal violet under a coverslip. The % of cells in mitosis was determined microscopically by counting 500 cells/slides. The mitotic index was calculated as the % of mitotic cells in drug-treated cultures divided by the % of mitotic cells in non-treated controls.

[4] = HL-60-RV and HL-60-R8 vs HL-60-S

Chain of Malaria protease plasmepsin II (P46925 125-453): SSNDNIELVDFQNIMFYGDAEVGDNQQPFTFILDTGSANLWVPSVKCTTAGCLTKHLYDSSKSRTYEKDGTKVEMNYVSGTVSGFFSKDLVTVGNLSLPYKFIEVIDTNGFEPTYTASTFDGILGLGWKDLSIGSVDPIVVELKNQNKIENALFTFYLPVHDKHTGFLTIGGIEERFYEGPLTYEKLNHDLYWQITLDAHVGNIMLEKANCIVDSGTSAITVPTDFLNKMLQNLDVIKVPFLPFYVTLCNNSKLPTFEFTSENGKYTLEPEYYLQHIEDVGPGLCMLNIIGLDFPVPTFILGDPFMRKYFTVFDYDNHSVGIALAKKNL

Row | IC50 [1] [nM] | IC50 (HL-60-S cells [2]; HL-60-S, HL-60-RV and HL-60-R8, day 4, read-out: IC50 values, inhibition of cell proliferation, range over the three lines) [nM] | IC50 (HL-60-S cells [2]; day 2, read-out: IC50, inhibition of HL-60-S cell proliferation) [nM] | IC50 (HL-60-S cells [2]; day 4, read-out: IC50, inhibition of HL-60-S cell proliferation) [nM] | IC50 (HL-60-RV cells) [nM] | IC50 (HL-60-S cells [3]; purine nucleoside, read-out: IC50, cellular transport of 3H-adenosine in HL-60-S cells) [nM] | IC50 (HL-60-S cells [3]; pyrimidine nucleoside, read-out: IC50, cellular transport of 3H-thymidine in HL-60-S cells) [nM] | IC50 (HL-60-R8 cells; purine nucleoside, read-out: IC50, cellular transport of 3H-adenosine in HL-60-R8 cells) [nM] | IC50 (HL-60-R8 cells; pyrimidine nucleoside, read-out: IC50, cellular transport of 3H-thymidine in HL-60-R8 cells) [nM] | SMILES | times TT2 inhibits tumor cell growth less effectively than DAU (HL-60-S cells [2]; HL-60-S) [times] | RFs, DNA synthesis (IC50 of MDR cells / IC50 of WT HL-60-S) (HL-60-RV cells; [4]) | effect on the mitotic index (L1210 cells) | decrease of the % of mitotic cells (L1210 cells) | IC50 (HL-60-S cells [2]; Homo sapiens, 48 h, read-out: IC50, inhibition of HL-60-S cell proliferation) [nM] | IC50 (HL-60-S cells [2]; Homo sapiens, 96 h, read-out: IC50, inhibition of HL-60-S cell proliferation) [nM] | times MDR sublines are less sensitive, DNA synthesis (HL-60-RV cells; [4]) [times] | IC50 (HL-60-RV cells; Homo sapiens) [nM] | effect on nucleoside transport in WT HL-60-S cells (HL-60-S cells [3])
1 | 23600 | – | – | – | – | – | – | – | – | COC1=C(Br)C(=O)C2=C(C1=O)C1C3=C(C(=O)C=C(N(C)C)C3=O)C2c2ccccc21 (centres unmarked) [TT16, 2-Bromo-3-methoxy-6-(dimethylamino)-9,10-dihydro-9,10-[1′,2′]benzenoanthracene-1,4,5,8-tetraone] | – | – | – | – | – | – | – | – | –
2 | – | 260 to 300 | 400 | 300 | 2100 | 3300 | 2000 | 3700 | 2300 | COC1=CC(=O)C2=C(C1=O)C1C3=C(C(=O)C=CC3=O)C2c2ccccc21 (centres unmarked) [TT2, 2-Methoxy-9,10-dihydro-9,10-[1′,2′]benzenoanthracene-1,4,5,8-tetraone] | 33 | 1.2 | does not increase | 38-48% | – | – | – | – | –
3 | – | – | – | – | – | – | – | – | – | COc1cccc2c1C(=O)c1c(O)c3c(c(O)c1C2=O)C[C@@](O)(C(C)=O)C[C@@H]3O[C@H]1C[C@H](N)[C@H](O)[C@H](C)O1 [DAU, daunomycin, reference compound] | – | 8.1-11.9 | – | 74-91% | 14 | 9 | 10 | 2500 | fails to significantly inhibit
